The values that follow come from the NIST ThermoML archive (doi:10.1021/acs.jced.9b00243).

Numbers after ± are expanded uncertainties.

The conditions of data set [1]: Crystal; DSC.
Data set [2] is described as follows: Molar enthalpy of transition or fusion. The following applies: Crystal; DSC.

In the case of `N#CCc1ccccc1[N+](=O)[O-]` [o-nitrophenylacetonitrile], the Triple point temperature in data set [1] stood at 351.59 ± 1.2 K. The “Molar enthalpy of transition or fusion” value in data set [2] came to 3.4 ± 0.22 kcal/mol.
